{
  "source": "patent US12479866B2",
  "about": "“Boron-containing rho kinase inhibitors” (Percipiad, Inc., priority 2019, dated 2025)",
  "assay_type_in_all_cases": "biochemical",
  "key": {"ROCK2 [1]": {"molecular_target": "T1, ROCK2 (Homo sapiens (Human), UniProt O75116)", "experiment": "ROCK2 ADP-Glo kinase enzyme inhibition assay", "description": "(§1) We measured ROCK and PKA kinase enzyme activity inhibition by compounds using commercially available ROCK1 (Promega Corporation, cat #V9581), ROCK2 (Promega, cat #V4045), and PKA kinase (Promega, cat #V4247) ADP-Glo™ assay kits. ADP-Glo™ Kinase Assay is a luminescent ADP detection assay that provides a homogeneous method to measure kinase activity by quantifying the amount of ADP produced during a kinase reaction. The assay is performed in two steps. First, after the kinase reaction, an equal volume of ADP-Glo™ Reagent is added to terminate the kinase reaction and deplete the remaining ATP. Second, the Kinase Detection Reagent is added to simultaneously convert ADP to ATP and allow the newly synthesized ATP to be measured using a luciferase/luciferin reaction. The light generated is measured using a luminometer. A complete protocol is included with the kits and is also available at the Promega website. The assay is briefly described below. • 1. Diluted enzyme, substrate, ATP, and compounds (inhibitors) in Kinase Buffer (40 mM Tris, 7.5, 20 mM MgCl2, 0.1 mg/ml BSA, 50 μM DTT). • 2. Added 1 μl of inhibitor, 2 μl of enzyme and 2 μl of substrate/ATP mix to the wells of 384-well low volume nonbinding assay plate A series of three-fold dilution of inhibitor was prepared and assayed for each inhibitor. • 3. Incubated at room temperature for 60 minutes. • 4. Added 5 μl of ADP-Glo™ Reagent. • 5. Incubated at room temperature for 60 minutes. • 6. Added 10 μl of Kinase Detection Reagent • 7. Incubated at room temperature for 30 minutes.\n(§2) Recorded luminescence (Integration time 1 second) using a plate-based luminometer.\nCalculated Percent Enzyme Activity: First subtract the signal of the negative control (no enzyme and no inhibitor) from each sample's signal. Then use the mean relative light units (RLU) values for the 0% kinase activity (neither inhibitor nor enzyme) and the 100% kinase activity (no compound) to calculate the other percent enzyme activities remaining in the presence of the different dilutions of inhibitor.\nInhibitor stock solutions of 10 mM are made in DMSO and stored at −20° C. Dilutions were made in assay buffer immediately before use."}, "PKA [2]": {"molecular_target": "T2, PKA (Homo sapiens (Human), UniProt P17612)", "experiment": "Radioisotope filter binding kinase assay", "settings": "10 uM ATP, read-out: IC50 estimates, PKA", "description": "(§3) Experiment was conducted by Absorption Systems. […] The radioisotope filter binding assay is considered the gold standard for kinase profiling. The assay directly detects the true product without the use of modified substrates, coupling enzymes, or detection antibodies. Compounds are incubated with kinase, substrate, cofactors, and radioisotope-labeled ATP (^33P-Y-ATP). The reaction mixtures are then spotted onto filter papers, which bind the radioisotope-labeled catalytic product. Unreacted phosphate is removed via washing of the filter papers.\n(§4) • Prepare kinase-specific substrate in freshly prepared Base Reaction Buffer (20 mM Hepes (pH 7.5), 10 mM MgCl2, 1 mM EGTA, 0.02% Brij35, 0.02 mg/ml BSA, 0.1 mM Na3VO4, 2 mM DTT, 10 µM ATP, and 1% DMSO). • Add kinase enzyme into the substrate solution and gently mix. • Add compounds in DMSO into the kinase reaction mixture by Acoustic technology (Echo550; nanoliter range), incubate for 20 minutes at room temperature. • Add ^33P-ATP (specific activity 10 μCi/μl)) into the reaction mixture to initiate the reaction. • Incubate kinase reaction for 2 hours at room temperature. • Spot reactions onto P81 ion exchange paper. • Detect kinase activity by filter-binding method."}, "MRCKa": {"molecular_target": "MRCKa (Homo sapiens (Human), UniProt Q5VT25)", "sequence (Q5VT25 whole entry)": "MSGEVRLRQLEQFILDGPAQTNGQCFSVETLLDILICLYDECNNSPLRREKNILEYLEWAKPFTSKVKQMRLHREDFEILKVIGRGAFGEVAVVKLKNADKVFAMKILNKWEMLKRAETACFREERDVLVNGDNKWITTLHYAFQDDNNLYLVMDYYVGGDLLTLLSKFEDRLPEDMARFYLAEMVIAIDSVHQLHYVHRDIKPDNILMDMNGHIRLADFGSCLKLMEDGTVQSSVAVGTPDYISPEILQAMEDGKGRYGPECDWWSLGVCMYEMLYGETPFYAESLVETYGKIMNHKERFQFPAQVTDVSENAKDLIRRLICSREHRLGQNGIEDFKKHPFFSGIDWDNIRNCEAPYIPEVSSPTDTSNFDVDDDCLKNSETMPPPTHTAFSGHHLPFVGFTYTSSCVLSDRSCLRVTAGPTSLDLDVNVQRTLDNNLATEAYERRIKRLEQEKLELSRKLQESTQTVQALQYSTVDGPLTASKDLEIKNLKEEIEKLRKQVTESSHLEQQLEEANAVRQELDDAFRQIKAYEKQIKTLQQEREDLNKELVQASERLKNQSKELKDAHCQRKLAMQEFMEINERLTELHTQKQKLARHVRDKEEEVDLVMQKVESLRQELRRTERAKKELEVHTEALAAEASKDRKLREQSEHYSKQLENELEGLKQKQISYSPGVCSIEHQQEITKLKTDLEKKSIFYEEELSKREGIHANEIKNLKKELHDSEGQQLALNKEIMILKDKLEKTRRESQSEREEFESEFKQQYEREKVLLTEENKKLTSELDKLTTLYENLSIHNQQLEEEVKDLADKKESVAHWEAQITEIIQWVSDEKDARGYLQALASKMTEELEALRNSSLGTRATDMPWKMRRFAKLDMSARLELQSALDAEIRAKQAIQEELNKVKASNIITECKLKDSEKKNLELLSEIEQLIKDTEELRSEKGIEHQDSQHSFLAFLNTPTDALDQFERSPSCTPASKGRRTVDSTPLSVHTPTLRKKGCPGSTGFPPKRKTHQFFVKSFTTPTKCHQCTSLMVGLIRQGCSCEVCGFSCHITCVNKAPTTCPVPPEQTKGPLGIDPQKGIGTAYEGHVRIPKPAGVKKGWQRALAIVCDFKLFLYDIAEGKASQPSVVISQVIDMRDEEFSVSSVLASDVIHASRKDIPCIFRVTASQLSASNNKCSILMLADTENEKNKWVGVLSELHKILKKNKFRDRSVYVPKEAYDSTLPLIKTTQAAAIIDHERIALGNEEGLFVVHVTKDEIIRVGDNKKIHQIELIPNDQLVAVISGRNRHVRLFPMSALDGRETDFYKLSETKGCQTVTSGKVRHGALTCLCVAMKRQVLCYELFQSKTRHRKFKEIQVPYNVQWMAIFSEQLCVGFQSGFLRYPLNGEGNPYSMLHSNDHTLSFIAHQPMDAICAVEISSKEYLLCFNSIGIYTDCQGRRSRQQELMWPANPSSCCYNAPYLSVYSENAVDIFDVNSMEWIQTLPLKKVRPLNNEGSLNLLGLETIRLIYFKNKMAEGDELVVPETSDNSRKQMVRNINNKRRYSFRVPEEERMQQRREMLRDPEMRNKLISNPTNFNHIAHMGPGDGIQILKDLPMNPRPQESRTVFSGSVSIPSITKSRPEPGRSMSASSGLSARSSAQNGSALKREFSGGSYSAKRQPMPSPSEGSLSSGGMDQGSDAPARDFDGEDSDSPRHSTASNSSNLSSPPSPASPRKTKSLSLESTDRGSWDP", "experiment": "Radioisotope filter binding kinase assay", "settings": "10 uM ATP, read-out: IC50 estimates, MRCKa", "description": "as §3, §4"}, "ROCK1": {"molecular_target": "ROCK1 (Homo sapiens (Human), UniProt Q13464)", "sequence (Q13464 whole entry, species assumed)": "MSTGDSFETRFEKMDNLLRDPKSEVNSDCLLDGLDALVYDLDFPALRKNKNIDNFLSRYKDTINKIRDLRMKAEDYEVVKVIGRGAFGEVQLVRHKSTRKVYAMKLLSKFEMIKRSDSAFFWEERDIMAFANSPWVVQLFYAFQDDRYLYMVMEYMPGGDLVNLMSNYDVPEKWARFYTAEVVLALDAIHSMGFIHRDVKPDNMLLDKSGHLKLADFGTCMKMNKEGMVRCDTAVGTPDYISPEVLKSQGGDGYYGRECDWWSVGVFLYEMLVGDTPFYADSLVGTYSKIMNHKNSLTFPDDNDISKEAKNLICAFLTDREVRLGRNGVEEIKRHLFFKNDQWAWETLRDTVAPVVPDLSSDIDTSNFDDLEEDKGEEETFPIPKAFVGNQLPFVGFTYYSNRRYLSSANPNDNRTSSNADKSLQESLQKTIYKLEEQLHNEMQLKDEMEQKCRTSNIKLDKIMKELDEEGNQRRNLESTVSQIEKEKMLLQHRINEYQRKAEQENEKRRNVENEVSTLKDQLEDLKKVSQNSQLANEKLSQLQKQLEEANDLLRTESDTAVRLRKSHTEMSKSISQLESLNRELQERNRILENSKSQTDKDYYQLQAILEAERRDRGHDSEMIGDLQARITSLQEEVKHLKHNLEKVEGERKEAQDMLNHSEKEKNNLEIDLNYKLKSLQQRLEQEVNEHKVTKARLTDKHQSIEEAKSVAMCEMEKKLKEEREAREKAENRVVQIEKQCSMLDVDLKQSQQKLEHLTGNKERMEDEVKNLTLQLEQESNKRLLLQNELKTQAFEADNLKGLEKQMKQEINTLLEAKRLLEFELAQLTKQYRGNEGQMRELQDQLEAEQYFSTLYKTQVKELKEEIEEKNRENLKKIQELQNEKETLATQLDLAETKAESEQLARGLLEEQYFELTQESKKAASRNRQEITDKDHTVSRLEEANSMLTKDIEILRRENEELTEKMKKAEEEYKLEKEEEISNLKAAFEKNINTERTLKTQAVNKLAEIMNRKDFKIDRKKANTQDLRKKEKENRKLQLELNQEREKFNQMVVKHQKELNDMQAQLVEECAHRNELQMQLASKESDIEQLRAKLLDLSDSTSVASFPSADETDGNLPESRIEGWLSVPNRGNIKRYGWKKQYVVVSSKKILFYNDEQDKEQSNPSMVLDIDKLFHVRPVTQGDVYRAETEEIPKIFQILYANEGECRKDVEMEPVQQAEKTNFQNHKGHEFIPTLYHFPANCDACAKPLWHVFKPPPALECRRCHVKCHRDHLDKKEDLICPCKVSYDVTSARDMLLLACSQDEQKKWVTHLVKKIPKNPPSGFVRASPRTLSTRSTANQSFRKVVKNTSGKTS", "experiment": "Radioisotope filter binding kinase assay", "settings": "10 uM ATP, read-out: IC50 estimates, ROCK1", "description": "as §3, §4"}, "PKCtheta": {"molecular_target": "PKCtheta (Homo sapiens (Human), UniProt Q04759)", "sequence (Q04759 whole entry)": "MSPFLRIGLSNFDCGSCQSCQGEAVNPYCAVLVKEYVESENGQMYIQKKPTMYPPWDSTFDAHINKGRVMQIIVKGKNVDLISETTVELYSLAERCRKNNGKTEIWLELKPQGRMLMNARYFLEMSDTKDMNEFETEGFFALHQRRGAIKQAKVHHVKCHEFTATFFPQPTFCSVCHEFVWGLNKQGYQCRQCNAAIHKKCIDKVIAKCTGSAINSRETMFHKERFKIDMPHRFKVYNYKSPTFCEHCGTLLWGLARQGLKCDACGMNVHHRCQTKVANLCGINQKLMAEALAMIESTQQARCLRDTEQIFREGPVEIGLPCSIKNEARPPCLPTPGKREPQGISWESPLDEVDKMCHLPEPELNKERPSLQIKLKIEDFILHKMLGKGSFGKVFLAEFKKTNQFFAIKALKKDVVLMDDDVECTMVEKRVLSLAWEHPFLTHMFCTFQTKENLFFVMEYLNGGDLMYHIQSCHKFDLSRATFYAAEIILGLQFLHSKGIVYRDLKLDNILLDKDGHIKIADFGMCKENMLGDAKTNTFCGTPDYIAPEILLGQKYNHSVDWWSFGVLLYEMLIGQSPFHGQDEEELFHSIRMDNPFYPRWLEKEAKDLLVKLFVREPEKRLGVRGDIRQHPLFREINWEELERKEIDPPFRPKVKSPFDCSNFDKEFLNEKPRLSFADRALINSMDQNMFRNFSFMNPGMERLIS", "experiment": "Radioisotope filter binding kinase assay", "settings": "10 uM ATP, read-out: IC50 estimates, PKCtheta", "description": "as §3, §4"}, "ROCK2 [3]": {"molecular_target": "T1, ROCK2", "experiment": "Radioisotope filter binding kinase assay", "settings": "10 uM ATP, read-out: IC50 estimates, ROCK2", "description": "as §3, §4"}, "PKA [4]": {"molecular_target": "T2, PKA", "experiment": "PKA ADP-Glo kinase enzyme inhibition assay", "settings": "read-out: PKAIC50", "description": "as §1, with “Added 1 μl of inhibitor, 2 μl of enzyme and 2 μl of substrate/ATP mix to the wells of 384-well low volume nonbinding assay plate A series of three-fold dilution of inhibitor was prepared and assayed for each inhibitor. • 3. Incubated at room temperature for 60 minutes. • 4. Added 5 μl of ADP-Glo™ Reagent. • 5. Incubated at room temperature for 60 minutes. • 6. Added 10 μl of Kinase Detection Reagent • 7. Incubated at room temperature for 30 minutes.” left out\nas §2\nCalculated Percent Enzyme Activity: First subtract the signal of the negative control (no enzyme and no inhibitor) from each sample's signal. […]"}},
  "data": [
    {"smiles": "NCC(C(=O)Nc1ccc2cnccc2c1)c1ccc(CO)cc1", "note": "(racemic) [Netarsudil-M1-racemate•2HCl, Netarsdil-M1-(racemic), reference compound]", "values": [
      {"measurement": "IC50", "setting": "ROCK2 [1]; Exp #2, read-out: ROCK2 IC50(Exp #2)", "value": 66, "unit": "nM"},
      {"measurement": "IC50", "setting": "ROCK2 [1]; Exp #3, read-out: ROCK2 IC50(Exp #3)", "value": 15, "unit": "nM"},
      {"measurement": "IC50", "setting": "PKA [2]", "value": 12, "unit": "nM"},
      {"measurement": "IC50", "setting": "MRCKa", "value": "> 10000", "unit": "nM"},
      {"measurement": "IC50", "setting": "ROCK1", "value": 15, "unit": "nM"},
      {"measurement": "IC50", "setting": "PKCtheta", "value": 5130, "unit": "nM"},
      {"measurement": "IC50", "setting": "ROCK2 [3]", "value": 6, "unit": "nM"},
      {"measurement": "IC50", "setting": "PKA [4]", "value": 23, "unit": "nM"}
    ]}
  ]
}
